In patent publication US20140007502A1, “METHODS AND COMPOSITIONS FOR INCREASED PLANT YIELD” (priority 2011, published 2014):

Experiments:
Type in all cases: in vivo
[1] = test system: maize hybrid (Famoso, NK Seeds); test: Maize field plots, kernel yield at conventional and increased plant density (Example 1); conditions: kernels at 14% moisture
Description: Plots measuring 25×40 meters were planted with a common maize hybrid (Famoso, NK Seeds). Eight plots were planted according to density strategies considered optimum prior to the disclosure of the present invention: rows were spaced 75 cm apart, allowing for 16 rows per plot which had 19 cm between plants. Another eight plots were planted with maize at increased density: spacing between rows was 45 cm, giving 24 rows per plot with 22 cm between plants. Thus the density was 7 plants/m^2 for conventional density and 10 plants/m^2 for increased density.
In the 8 plots of conventional density two were untreated controls. Three were treated with a foliar application at stage BBCH 14-15; one with trinexapac ethyl, one with azoxystrobin, and one with a mixture of trinexapac and azoyxstrobin. The remaining three were treated with a foliar application at stage BBCH 31-32; one with trinexapac ethyl, one with azoxystrobin, and one with a mixture of trinexapac and azoyxstrobin. The 8 plots planted at increased density were treated at the same stages and with the same agents as for the conventional density plots. Best practices were used consistently across the test plots with regard to field conditions such as fertilisation and irrigation and all other measures like weed and insect control.
At maturity, each plot was harvested using a standard harvester. After shelling, the kernels were weighed at 14% moisture and the calculations extrapolated to a ton per hectare yield.

[2] = test system: maize hybrid COOLER (NK Seeds); test: Maize field trial yield, Valais, Switzerland (Example 2); conditions: treatment at BBCH 14, 188 days
Description: (§1) Plots of suitable size in Valais, Switzerland were planted with maize hybrid COOLER™ (NK Seeds) at a conventional amount of seeds per hectare (in this example, 99,000) and at an increased density amount of seeds per hectare (in this example, 125,000).
(§2) Each density area was divided into four separate treatments—an untreated control, treatment with trinexapac ethyl (0.6 l/Ha of MODDUS™ 250EC which has 250 g trinexapac ethyl per liter) at BBCH 14, treatment with azoyxstrobin (1 l/Ha of a formulated product having 141.4 g azoxystrobin per liter in the form of QUILT® (Syngenta Crop Protection AG) which also contains 122.4 g propiconazole per liter) at BBCH 14, and treatment with trinexapac ethyl (0.6 l/Ha of 250 g/l product) and azoxystrobin (1 l/Ha of 141.4 g/l product) at BBCH 14.
(§3) Best practices were used consistently across the test plots with regard to field conditions such as fertilisation and irrigation and all other measures like weed and insect control. There was no fungal disease pressure. After a growing season of 188 days (29 Apr. 2011 to 3 Nov. 2011), each plot was harvested using a standard harvester. After shelling, the kernels were weighed at 14% moisture and the calculations extrapolated to a ton per hectare yield.

[3] = test system: maize variety Famoso (NK Seeds); test: Maize field trial yield, Milano, Italy, 163 days (Example 3); conditions: treatment at BBCH 14
Description: as §1, §2, §3
Plots were prepared and treated according to the procedure described in Example 2. The differences were that the location was Milano, Italy and the variety was Famoso (NK Seeds). The growing season was 163 days (18 Apr. 2011 to 28 Sep. 2011).

[4] = test system: maize variety Terada (NK Seeds); test: Maize field trial yield, Oise, France (Example 4); conditions: treatment at BBCH 14, 182 days
Description: as §1, §2, §3
Plots were prepared and treated according to the procedure described in Example 2. The differences were that the location was Oise, France and the variety was Terada (NK Seeds). The growing season was 182 days (14 Apr. 2011 to 13 Oct. 2011).

[5] = test system: maize variety Famoso (NK Seeds); test: Maize field trial yield, Milano, Italy, 158 days (Example 5); conditions: treatment at BBCH 14
Description: as §1, §2, §3
Plots were prepared and treated according to the procedure described in Example 2. The differences were that the location was Milano, Italy and the variety was Famoso (NK Seeds). The growing season was 158 days (15 Apr. 2011 to 20 Sep. 2011).

[6] = test system: maize variety DeliTop (NK Seeds); test: Maize field trial yield, Niedersachsen, Germany (Example 6); conditions: treatment at BBCH 14, 184 days
Description: as §1, §2, §3
Plots were prepared and treated according to the procedure described in Example 2. The differences were that the location was Niedersachsen, Germany and the variety was DeliTop (NK Seeds). The growing season was 184 days (1 May 2011 to 1 Nov. 2011).

[7] = plant density 7 plants/m^2, foliar application at BBCH 14-15
[8] = plant density 7 plants/m^2, foliar application at BBCH 31-32
[9] = plant density 10 plants/m^2, foliar application at BBCH 14-15
[10] = plant density 10 plants/m^2, foliar application at BBCH 31-32

Row | SMILES | Yield [1, 7] | Yield [1, 8] | Yield [1, 9] | Yield [1, 10] | Yield ([2]; 99,000 seeds per hectare) | Yield ([2]; 125,000 seeds per hectare) | Yield ([3]; 73,000 seeds per hectare) | Yield ([3]; 94,000 seeds per hectare) | Yield ([4]; 70,000 seeds per hectare) | Yield ([4]; 100,000 seeds per hectare) | Yield ([5]; 74,000 seeds per hectare) | Yield ([5]; 94,000 seeds per hectare) | Yield ([6]; 72,000 seeds per hectare) | Yield ([6]; 111,000 seeds per hectare)
1 | CO/C=C(/C(=O)OC)c1ccccc1Oc1cc(Oc2ccccc2C#N)ncn1 [Azoxystrobin, azoxystrobin] | 16.67 tons/ha | 17.28 tons/ha | 20.11 tons/ha | 19.58 tons/ha | 14.1 tons/ha | 17.8 tons/ha | 11.6 tons/ha | 12.2 tons/ha | 11.2 tons/ha | 13.6 tons/ha | 14.0 tons/ha | 15.0 tons/ha | 11.4 tons/ha | 11.1 tons/ha
2 | CCOC(=O)C1CC(=O)C(=C(O)C2CC2)C(=O)C1 (stereo not shown) [Trinexapac Ethyl, trinexapac ethyl] | 16.82 tons/ha | 16.70 tons/ha | 19.85 tons/ha | 19.41 tons/ha | 14.0 tons/ha | 18.6 tons/ha | 11.3 tons/ha | 12.1 tons/ha | 10.5 tons/ha | 14.6 tons/ha | 13.7 tons/ha | 14.7 tons/ha | 11.4 tons/ha | 11.0 tons/ha
